According to patent publication US3956495A, “2,4-Diaminoquinazolines as antithrombotic agents” (Eli Lilly and Company, priority 1973, dated 1976):
Where a name gives a salt, the structure may show the parent alone.

How the values were obtained:
[1] = tested on: collagen-induced aggregation (platelet); test: Collagen-induced platelet aggregation inhibition, in vitro test (Table I); type: cell-based; settings: for inhibition at 41.7 µg/mL: 41.7 μg/ml; for inhibition at 167 µg/mL: 167 μg/ml; for inhibition at 10.4 µg/mL: 10.4 μg/ml
Text: (§1) Exp. Biol. Med., 135, 100 (1970), and references cited therein.

[2] = tested on: platelet aggregation to collagen challenge; test: Platelet aggregation inhibition to collagen challenge, in vivo-in vitro test after oral administration (Table II); set-up: species or system guinea pig; settings: stock suspension 1:4, blood one hour and three hours after dosing
Procedure: Briefly, the test procedure is as follows: blood samples are obtained from a guinea pig prior to the oral administration of the test compound. The test compound when is administered orally and blood samples withdrawn one hour and three hours after dosing. Each blood sample is treated as described in the in vitro test. The test requires one control group of six animals and six animals per compound per dose. For a more detailed description, see Herrmann et al., Proc. Soc. Exp. Biol. Med., 139, 548 (1972).

[3] = tested on: ADP-induced aggregation (platelet); test: ADP-induced platelet aggregation inhibition, in vitro test (Table I); type: cell-based; settings: for inhibition at 167 µg/mL: 167 μg/ml
Text: as §1

[4] = Platelet, collagen stock suspension 1:4
[5] = Platelet, collagen stock solution 1:32
[6] = Platelet, 83.4 μg/ml, collagen stock suspension 1:4

## 2,4-bispyrrolidinylquinazoline
[1]; 2.6 μg/ml, collagen stock suspension undiluted
  % Inhibition of Aggregation, Collagen: ≥ 20%
[1]; 83.4 μg/ml, collagen stock suspension 1:4
  % Inhibition of Aggregation, Collagen: ≥ 20%
[2]; 12.5 mg/kg
  % Inhibition of Aggregation to Collagen Challenge: ≥ 20%

## CN(C)c1nc(N(C)C)c2ccccc2n1 [2,4-bis(dimethylamino)quinazoline]
[1]; [4]
  inhibition at 41.7 µg/mL: ≥ 20%

## Clc1ccc2nc(N3CCOCC3)nc(N3CCOCC3)c2c1 [2,4-bismorpholino-6-chloroquinazoline]
[1]; [5]
  inhibition at 167 µg/mL: 25%
[3]
  inhibition at 167 µg/mL: 3%

## Cc1ccc2nc(N3CCOCC3)nc(N3CCOCC3)c2c1 [2,4-bismorpholino-6-methylquinazoline]
[1]; [5]
  inhibition at 167 µg/mL: 62%
[3]
  inhibition at 167 µg/mL: 29%

## c1ccc2c(N3CCOCC3)nc(N3CCOCC3)nc2c1 [2,4-bismorpholinoquinazoline]
[1]; [4]
  inhibition at 10.4 µg/mL: 35%
[3]; 5.2 μg/ml
  inhibition at 5.2 µg/mL: 51%

## Clc1ccc2nc(N3CCCCC3)nc(N3CCCCC3)c2c1 [2,4-bispiperidino-6-chloroquinazoline]
[1]; [5]
  inhibition at 167 µg/mL: 91%
[3]
  inhibition at 167 µg/mL: 61%

## Cc1ccc2nc(N3CCCCC3)nc(N3CCCCC3)c2c1 [2,4-bispiperidino-6-methylquinazoline]
[1]; [5]
  inhibition at 167 µg/mL: 21%
[3]
  inhibition at 167 µg/mL: 5%

## c1ccc2c(N3CCCCC3)nc(N3CCCCC3)nc2c1 [2,4-bispiperidinoquinazoline]
[1]; [4]
  inhibition at 41.7 µg/mL: ≥ 20%
[2]; Cavia porcellus, Platelet, 50 mg/kg
  inhibition at 50 mg/kg: ≥ 20%

## NCCNc1nc(N2CCOCC2)c2ccccc2n1 [2-(2-aminoethylamino)-4-morpholinoquinazoline dihydrochloride]
[1]; [6]
  inhibition at 83.4 µg/mL: ≥ 20%

## CN1CCN(c2nc(N)c3ccccc3n2)CC1 [2-(4-methylpiperazinyl)-4-aminoquinazoline hydrochloride]
[1]; [6]
  inhibition at 83.4 µg/mL: ≥ 20%

## CN1CCN(c2nc(N3CCOCC3)c3ccccc3n2)CC1 [2-(4-methylpiperazinyl)-4-morpholinoquinazoline]
[1]; Platelet, 2.6 μg/ml, collagen stock solution 1:32
  inhibition at 2.6 µg/mL: 30%
[3]; 83 μg/ml
  inhibition at 83 µg/mL: 44%

## c1ccc2c(NC34CC5CC(CC(C5)C3)C4)nc(N3CCOCC3)nc2c1 [2-morpholino-4-(1-adamantylamino)quinazoline hydrochloride]
[1]; [6]
  inhibition at 83.4 µg/mL: ≥ 20%

## CCN(CC)CCNc1nc(N2CCOCC2)nc2ccccc12 [2-morpholino-4-(2-diethylaminoethylamino)quinazoline hydrochloride]
[1]; [4]
  inhibition at 41.7 µg/mL: ≥ 20%
[2]; Cavia porcellus, Platelet, 100 mg/kg
  inhibition at 100 mg/kg: ≥ 20%

## CN1CCN(c2nc(N3CCOCC3)nc3ccccc23)CC1 [2-morpholino-4-(4-methylpiperazinyl)quinazoline dihydrochloride, dihydrate]
[1]; [4]
  inhibition at 41.7 µg/mL: ≥ 20%

## Nc1nc(N2CCOCC2)nc2ccccc12 [2-morpholino-4-aminoquinazoline]
[1]; [4]
  inhibition at 41.7 µg/mL: ≥ 20%

## CCN(CC)c1nc(N2CCOCC2)nc2ccccc12 [2-morpholino-4-diethylaminoquinazoline, 2-morpholino-4-diethylaminoquinazoline hydrochloride]
[1]; [4]
  inhibition at 10.4 µg/mL: ≥ 20%

## CCN(CC)CCNc1nc(N2CCCC2)nc2ccccc12 [2-pyrrolidinyl-4-(2-diethylaminoethylamino)quinazoline]
[1]; Platelet, collagen stock suspension undiluted
  inhibition at 10.4 µg/mL: ≥ 20%
[1]; Platelet, 20.8 μg/ml, collagen stock suspension 1:4
  inhibition at 20.8 µg/mL: ≥ 20%
